Experimental data from patent publication US10945981B2, “Methods for treating familial adenomatous polyposis” (CANCER PREVENTION PHARMACEUTICALS, INC., priority 2019, dated 2021).

Tests used:
[1] = system: patients with Familial Adenomatous Polyposis (FAP); test: Randomized, double-blind phase III trial in FAP patients: FAP-related events (efficacy); format: in vivo, human; details: for Mean time to first FRE: Kaplan-Meier estimated
Description: Patients were stratified by anatomic site with highest polyp burden and surgical status: (a) post colectomy with rectal or ileal pouch polyposis (longest projected time to first FRE); (b) with duodenal polyposis (intermediate projected time to first FRE); and (c) pre-colectomy (shortest projected time to first FRE) prior to randomization to minimize treatment imbalance.
A stratified randomization procedure was used with stratification based on FAP-related time-to-first-event prognosis (see FIG. 1). The event prognosis groups were represented by 1) best (i.e., longest projected time to first FAP-related event)—rectal/pouch polyposis (Post-colectomy (≥3 years S/P IRA or IPAA with >10 polyps; any polyps >5 mm excised at baseline)), 2) intermediate—duodenal polyposis (Spigelman Stage 3 or 4 or Spigelman Stage 3 or 4 down-staged to Spigelman 1 or 2 within the past 6 months), and 3) worst—pre-colectomy. If a subject has two or more of these disease sites, the most severe prognosis stratum was assigned for randomization (e.g. worst>intermediate>best). Since an individual may have more than one disease site involved, the trial assessed time to any defined FAP-related event in the subject as a whole. In order to minimize potential treatment arm imbalance a centralized randomization process was used to balance among treatment groups within prognostic strata.
Lower GI Endoscopy: Patients were evaluated via colonoscopy, flexible or rigid procto-sigmoidoscopy during the screening phase. Biopsies, ablations, and snare excisions at baseline were performed per the clinician's standard of care. If considered eligible based on inclusion criteria, a grossly normal mucosa biopsy was obtained for baseline polyamine measurement. Still and video documentation of the colon (vide infra) or the residual rectum or entire pouch was also obtained for archiving. Polyp size was determined by visual comparison with biopsy forceps that can measure 5.0-5.5 mm in the fully open position. All randomized patients with an intact colon or rectum/pouch had baseline and on-study lower GI endoscopy procedures as part of this trial.
Upper GI Endoscopy: The duodenum was evaluated by forward-viewing and/or side-viewing gastroscopes (with still and video documentation with closed and open biopsy forceps near mucosa). All randomized patients with a duodenum had baseline and on-study UGI endoscopy as part of this trial. Subjects stratified to the duodenal group must have duodenal biopsies of all polyps 1 cm or larger to determine HGD and histology required for determining Stage 3 or 4 Spigelman status.
FAP-related primary events by disease site were as follows: • 1. Pre-operative, intact colon: Disease progression indicating need for colectomy with IRA or total procto-colectomy • 2. Retained rectum or pouch events include one or more of the following: • a) Excisional intervention by endoscopic snare or trans-anal excision to remove any polyp ≥10 mm in size (per pathology report) and/or pathologic evidence of high grade dysplasia. • b) Disease progression indicating need for proctectomy or pouch resection • 3. Duodenal disease includes the following: • a) Progression in Spigelman Stage to more advanced stage (Stage 2, 3 or 4) • b) Disease progression indicating need for excisional intervention (sub-mucosal resection, trans-duodenal excision, ampullectomy, duodenectomy, Whipple procedure) • c) Development of cancer
At six month intervals (+/−two weeks), subjects underwent repeat upper and lower endoscopy. […] Video recordings of all procedures and qualitative assessments were compared to the exam 6 months prior.

[2] = system: patients with Familial Adenomatous Polyposis (FAP); test: Randomized, double-blind phase III trial in FAP patients: safety (adverse events); details: for Treatment-related serious adverse events: 1 patient each
[3] = system: tumor putrescine levels; details: eflornithine infusion, rat-tumor model; cited from earlier work
[4] = system: prostoglandin E2 (PGE2); details: 300 mg/day, one month; cited from earlier work
[5] = disease site colon, number of subjects
[6] = disease site duodenum, number of subjects
[7] = disease site rectum and pouch, number of subjects
[8] = post-colectomy, rectal/ileal pouch stratum

NCCCC(N)(C(=O)O)C(F)F (stereo not shown) [Eflornithine, 2,5-diamino-2-(difluoromethyl)pentanoic acid]
Kaplan-Meier estimated mean time to first FRE ([1]; ITT population): 21.8 months | Event-free rate ([1]; ITT population, cumulative): 59.6% | FREs occurred, percent of patients ([1]; ITT population, cumulative): 40.4% | Surgical FAP-related events, Colon: Event-free proportion ([1]; disease site colon): 76.9% | Surgical FAP-related events, Colon: Colectomy [1, 5]: 0 | Surgical FAP-related events, Colon: Disease progression [1, 5]: 3 | Surgical FAP-related events, Duodenum: Event-free proportion ([1]; disease site duodenum): 72.7% | Surgical FAP-related events, Duodenum: Disease progression [1, 6]: 3 | Surgical FAP-related events, Duodenum: Excisional intervention [1, 6]: 3 | Surgical FAP-related events, Duodenum: Spigelman stage progression [1, 6]: 12 | Surgical FAP-related events, Rectum and Pouch: Event-free proportion ([1]; disease site rectum and pouch): 87.2% | Surgical FAP-related events, Rectum and Pouch: Disease progression [1, 7]: 5 | Surgical FAP-related events, Rectum and Pouch: Proctectomy/pouch resection [1, 7]: 1 | FRE type: Duodenal excision ([1]; duodenal polyposis stratum): 2 | FRE type: Duodenal excision and Spigelman stage progression ([1]; duodenal polyposis stratum): 1 | FRE type: Pouch resection ([1]; duodenal polyposis stratum): 2 | FRE type: Spigelman stage progression ([1]; duodenal polyposis stratum): 7 | FRE type: ≥10 mm polyp removed in rectum/pouch ([1]; duodenal polyposis stratum): 1 | Patients with FRE, % ([1]; duodenal polyposis stratum): (39.4) % | Total FRE ([1]; duodenal polyposis stratum): 13 | Mean time to first FRE ([1]; duodenal polyposis stratum): 21.7 months | Risk reduction versus combination ([1]; duodenal polyposis stratum, combination relative to the arm named): 24% | Patients with FRE, % ([1]; duodenal polyposis stratum, listed as eflornithine): 39.4% | Progression of lower gastrointestinal polyposis: surgeries ([1]; human, in vivo): 1 | Patients with duodenal polyposis progression who underwent duodenal excisional procedures ([1]; number of patients): 3 | FRE type: Pouch resection [1, 8]: 2 | FRE type: Proctocolectomy [1, 8]: 1 | FRE type: Spigelman stage progression [1, 8]: 1 | FRE type: ≥10 mm polyp removed in rectum/pouch [1, 8]: 1 | Patients with FRE, % [1, 8]: (41.7) % | Total FRE [1, 8]: 5 | Mean time to first FRE [1, 8]: 15.7 months | Risk reduction versus combination ([1]; post-colectomy, rectal/ileal pouch stratum, combination relative to the arm named): None | Patients with FRE, % ([1]; post-colectomy, rectal/ileal pouch stratum, listed as eflornithine): 41.7% | FRE type: Colectomy ([1]; pre-colectomy stratum): 2 | FRE type: Colectomy and Spigelman stage progression ([1]; pre-colectomy stratum): 1 | FRE type: Spigelman stage progression ([1]; pre-colectomy stratum): 2 | Patients with FRE, % ([1]; pre-colectomy stratum): (41.7) % | Total FRE ([1]; pre-colectomy stratum): 5 | Mean time to first FRE ([1]; pre-colectomy stratum): 19.7 months | Patients with FRE, % ([1]; pre-colectomy stratum, listed as eflornithine): 41.7% | Risk reduction versus combination ([1]; pre-colectomy stratum, risk reduction for FRE of the combination relative to the arm named): 80% | Event Rate of FAP-related Surgery Events in Lower GI ([1]; subjects with lower GI anatomy): 8/57 (14%) | Lower GI surgery events: Need colectomy ([1]; subjects with lower GI anatomy): 3 | Lower GI surgery events: Need pouch resection ([1]; subjects with lower GI anatomy): 4 | Lower GI surgery events: Need proctectomy ([1]; subjects with lower GI anatomy): 1 | Lower GI surgery events: Total Surgical Events ([1]; subjects with lower GI anatomy): 8 | Progression of lower gastrointestinal polyposis: polypectomies ([1]; ≥10 mm in size and/or high grade dysplasia): 2 | Discontinuations due to AEs, number of patients [2]: 5 patients | Discontinuations due to AEs, percent of patients [2]: 8.8% | TRAE reported by % of patients [2]: 55.4% | Treatment-related hearing adverse events: Hearing loss N [2]: 1 | Treatment-related hearing adverse events: Tinnitus N [2]: 1 | Treatment-related serious adverse events [2]: stroke | Treatment-related serious adverse events ([2]; listed as CPP-1X): Stroke | Death ([2]; safety population): 0 n (%) | Number of patients discontinuing due to a TRAE ([2]; safety population): 3 (5.4) n (%) | Number of patients reporting TEAEs ([2]; safety population): 49 (87.5) n (%) | Number of patients reporting TEAEs ≥ Grade 3 ([2]; safety population): 17 (30.4) n (%) | Number of patients reporting TRAE: Abdominal distension ([2]; safety population): 4 (7.1) n (%) | Number of patients reporting TRAE: Abdominal pain ([2]; safety population): 4 (7.1) n (%) | Number of patients reporting TRAE: Alopecia ([2]; safety population): 0 n (%) | Number of patients reporting TRAE: Decreased appetite ([2]; safety population): 3 (5.4) n (%) | Number of patients reporting TRAE: Depression ([2]; safety population): 1 (1.8) n (%) | Number of patients reporting TRAE: Diarrhea ([2]; safety population): 5 (8.9) n (%) | Number of patients reporting TRAE: Dizziness ([2]; safety population): 3 (5.4) n (%) | Number of patients reporting TRAE: Dyspepsia ([2]; safety population): 3 (5.4) n (%) | Number of patients reporting TRAE: Fatigue ([2]; safety population): 3 (5.4) n (%) | Number of patients reporting TRAE: Flatulence ([2]; safety population): 3 (5.4) n (%) | Number of patients reporting TRAE: Frequent bowel movements ([2]; safety population): 3 (5.4) n (%) | Number of patients reporting TRAE: Gastritis erosive ([2]; safety population): 0 n (%) | Number of patients reporting TRAE: Headache ([2]; safety population): 8 (14.3) n (%) | Number of patients reporting TRAE: Hematochezia ([2]; safety population): 4 (7.1) n (%) | Number of patients reporting TRAE: Nausea ([2]; safety population): 8 (14.3) n (%) | Number of patients reporting TRAE: Pruritus ([2]; safety population): 2 (3.6) n (%) | Number of patients reporting TRAE: Rash ([2]; safety population): 0 n (%) | Number of patients reporting TRAE: Rectal hemorrhage ([2]; safety population): 3 (5.4) n (%) | Number of patients reporting TRAE: Thrombocytopenia ([2]; safety population): 1 (1.8) n (%) | Number of patients reporting TRAE: Tinnitus ([2]; safety population): 1 (1.8) n (%) | Number of patients reporting TRAE: Upper abdominal pain ([2]; safety population): 2 (3.6) n (%) | Number of patients reporting TRAE: Vomiting ([2]; safety population): 5 (8.9) n (%) | Number of patients reporting TRAEs ([2]; safety population): 31 (55.4) n (%) | Number of patients reporting TRSAEs ([2]; safety population): 1 (1.8) n (%) | Decrease in tumor putrescine levels [3]: 90%

CC(C)Cc1ccc(C(C)C(=O)O)cc1 (stereo not shown) [ibuprofen]
PGE2 levels in flat mucosa [4]: significant decrease
